How the values were obtained:
B16-F10 [1] = test: Cytotoxicity against mouse B16-F10 cells assessed as cell viability at 2.5 uM irradiated with >= 365 nm Hg lamp for 5 mins after 6 hrs post-treatment and further incubated for 72 hrs by MTT assay; assay type: functional; conditions: B16-F10, light or radiation study, time 78 hrs, read-out: Activity
B16-F10 [2] = test: Induction of apoptosis in mouse B16-F10 cells assessed as early apoptotic cells at 5 uM incubated for 24 hrs by annexin-V-FITC and PI staining based flow cytometry analysis (reference value: 0 %); assay type: functional
[3] = Toxicity in C57BL/6J mouse model harboring mouse B16-F10 cells assessed as liver tissue necrosis at 0.4 mg/kg, iv administered alternate days for 24 days followed by irradiation with pulsed laser at 730 nm for 10 mins after 24 hrs each post-injection by hematoxylin and eosin staining based assay; assay type: organism-based; conditions: in vivo, 600 h, 0.73 µM, time 25 day
HEK293 [4] = test: Induction of apoptosis in HEK293 cells assessed as late apoptotic cells at 5 uM with light irradiation incubated for 24 hrs by annexin-V-FITC and PI staining based flow cytometry analysis (reference value: 0 %); assay type: functional, Homo sapiens
B16-F10 [5] = test: Photorelease activity in mouse B16-F10 cells assessed as uncaging of active molecules of drug by measuring green fluorescence at 20 uM incubated for 4 hrs irradiated with >= 365 nm Hg lamp for 5 mins and further incubated for 4 hrs by propidium iodide staining based confocal laser scanning microscopy; assay type: functional, cell-based; conditions: time 8.0 hrs
[6] = Biodistribution in liver of C57BL/6 mouse model harboring mouse B16-F10 cells at 0.4 mg/kg, iv irradiated with >= 365 nm Hg lamp for 10 mins measured after 24 hrs post-administration by fluorescence based assay; assay type: ADME, organism-based; conditions: in vivo, 24.17 h, time 1450 min
B16-F10 [7] = test: Induction of apoptosis in mouse B16-F10 cells assessed as early apoptotic cells at 5 uM with light irradiation incubated for 24 hrs by annexin-V-FITC and PI staining based flow cytometry analysis (reference value: 0 %); assay type: functional
[8] = Photorelease activity in PBS buffer at pH 7.4 assessed as release of CO using 3',6'-Bis(allyloxy)-3H-spiro(isobenzofuran-1,9'-xanthen)-3-one fluorescent probe by measuring red shift absorption spectra at 500 uM irradiated with >= 365 nm Hg lamp in presence of PdCl2 by absorption spectroscopy; assay type: physicochemical; conditions: pH 7.4, 500 µM, TDE = time-dependent effect
[9] = Toxicity in C57BL/6J mouse model harboring mouse B16-F10 cells assessed as spleen tissue necrosis at 0.4 mg/kg, iv administered alternate days for 24 days followed by irradiation with pulsed laser at 730 nm for 10 mins after 24 hrs each post-injection by hematoxylin and eosin staining based assay; assay type: organism-based; conditions: in vivo, 600 h, 0.73 µM, time 25 day
HEK293 [10] = test: Induction of apoptosis in HEK293 cells assessed as early apoptotic cells at 5 uM with light irradiation incubated for 24 hrs by annexin-V-FITC and PI staining based flow cytometry analysis (reference value: 0.1 %); assay type: functional, Homo sapiens
[11] = Stability of compound in PBS buffer at pH 7.4 at 100 uM incubated for 72 hrs under dark condition in presence of cysteine by Reverse-phase HPLC analysis; assay type: physicochemical; conditions: read-out: Stability
[12] = Biodistribution in spleen of C57BL/6 mouse model harboring mouse B16-F10 cells at 0.4 mg/kg, iv irradiated with >= 365 nm Hg lamp for 10 mins measured after 24 hrs post-administration by fluorescence based assay; assay type: ADME, organism-based; conditions: in vivo, 24.17 h, time 1450 min
[13] = Toxicity in C57BL/6J mouse model harboring mouse B16-F10 cells assessed as change in body weight at 0.4 mg/kg, iv administered alternate days for 24 days followed by irradiation with pulsed laser at 730 nm for 10 mins after 24 hrs each post-injection; assay type: organism-based; conditions: in vivo, 600 h, 0.73 µM, time 25 day
[14] = Toxicity in C57BL/6J mouse model harboring mouse B16-F10 cells assessed as kidney tissue necrosis at 0.4 mg/kg, iv administered alternate days for 24 days followed by irradiation with pulsed laser at 730 nm for 10 mins after 24 hrs each post-injection by hematoxylin and eosin staining based assay; assay type: organism-based; conditions: in vivo, 600 h, 0.73 µM, time 25 day
B16-F10 [15] = test: Induction of apoptosis in mouse B16-F10 cells assessed as late apoptotic cells at 5 uM incubated for 24 hrs by annexin-V-FITC and PI staining based flow cytometry analysis (reference value: 0.1 %); assay type: functional
[16] = Stability of compound in PBS buffer at pH 7.4 at 100 uM incubated for 72 hrs under dark condition by RP-HPLC analysis; assay type: physicochemical; conditions: read-out: Stability
[17] = Photolysis of compound in PBS buffer at pH 7.4 assessed as compound decomposition by measuring final photoproduct formation at 0.1 mM irradiated with >= 365 nm for 30 mins by RP-HPLC analysis; assay type: physicochemical; conditions: pH 7.4, 0.5 h, 100 µM
[18] = Toxicity in C57BL/6J mouse model harboring mouse B16-F10 cells assessed as change in movement at 0.4 mg/kg, iv administered alternate days for 24 days followed by irradiation with pulsed laser at 730 nm for 10 mins after 24 hrs each post-injection by hematoxylin and eosin staining based assay; assay type: organism-based; conditions: in vivo, 600 h, 0.73 µM, time 25 day
B16-F10 [19] = test: Biodistribution in tumor site of C57BL/6 mouse model harboring mouse B16-F10 cells at 0.4 mg/kg, iv irradiated with >= 365 nm Hg lamp for 10 mins measured after 24 hrs post-administration by fluorescence based assay; assay type: ADME, organism-based; conditions: in vivo, 24.17 h, time 1450 min
HEK293 [20] = test: Induction of apoptosis in HEK293 cells assessed as late apoptotic cells at 5 uM incubated for 24 hrs by annexin-V-FITC and PI staining based flow cytometry analysis (reference value: 0 %); assay type: functional, Homo sapiens
[21] = Photorelease activity in PBS buffer at pH 7.4 assessed as release of CO in absence of light irradiation by absorption spectroscopy; assay type: physicochemical
[22] = Photorelease ability in PBS buffer at pH 7.4 assessed as compound decomposition at 0.1 mM irradiated with pulsed laser at 730 nm for 30 mins by RP-HPLC analysis; assay type: physicochemical; conditions: read-out: Drug degradation
HEK293 [23] = test: Induction of apoptosis in HEK293 cells assessed as viable cells at 5 uM incubated for 24 hrs by annexin-V-FITC and PI staining based flow cytometry analysis (reference value: 99.9 %); assay type: functional; conditions: Homo sapiens, read-out: Activity
[24] = Photorelease ability in PBS buffer at pH 7.4 assessed as compound decomposition at 100 uM irradiated with >= 365 nm Hg lamp upto 30 mins by UV absorption spectroscopy; assay type: physicochemical; conditions: read-out: Drug degradation
[25] = Toxicity in C57BL/6J mouse model harboring mouse B16-F10 cells assessed as lung tissue necrosis at 0.4 mg/kg, iv administered alternate days for 24 days followed by irradiation with pulsed laser at 730 nm for 10 mins after 24 hrs each post-injection by hematoxylin and eosin staining based assay; assay type: organism-based; conditions: in vivo, 600 h, 0.73 µM, time 25 day

Q: For `CCn1c2ccc(-c3coc(=O)o3)cc2c2cc(-c3coc(=O)o3)ccc21`, which viability at 2.5 µM (B16-F10 [1]) is on record?
A: 21%

Q: What about the Activity (B16-F10 [2]) of the same compound?
A: 1%

Q: And the Activity [3]?
A: Non-Toxic

Q: What about the Activity (HEK293 [4]) of the same compound?
A: 7.3%

Q: What about the Drug metabolism (B16-F10 [5]) of the same compound?
A: 100%

Q: And the Drug uptake [6]?
A: Active

Q: And the Activity (B16-F10 [7])?
A: 32.8%

Q: What about the Drug metabolism [8] of the same compound?
A: Tde

Q: And the Activity [9]?
A: Non-Toxic

Q: And the Activity (HEK293 [10])?
A: 46.3%

Q: And the remaining at 72 h, 100 µM [11]?
A: 92%

Q: And the Drug uptake [12]?
A: Active

Q: And the Activity [13]?
A: Non-Toxic

Q: What about the Activity [14] of the same compound?
A: Non-Toxic

Q: And the Activity (B16-F10 [15])?
A: 0%

Q: And the remaining at 72 h, 100 µM [16]?
A: 96%

Q: And the Drug degradation [17]?
A: 89%

Q: What about the Activity [18] of the same compound?
A: Non-Toxic

Q: What about the Drug uptake (B16-F10 [19]) of the same compound?
A: Active

Q: What about the Activity (HEK293 [20]) of the same compound?
A: 0.2%

Q: And the Drug metabolism [21]?
A: Not Active

Q: What about the degraded at 0.5 h, 100 µM [22] of the same compound?
A: 37%

Q: And the viability at 5 µM (HEK293 [23])?
A: 98.9%

Q: What about the degraded at 0.5 h, 100 µM [24] of the same compound?
A: 100%

Q: And the Activity [25]?
A: Non-Toxic
